Values quoted from earlier work, collected in patent US20130096060A1, “GLP-1 AGONIST FOR USE IN THE TREATMENT OF STENOSIS OR/AND OBSTRUCTION IN THE PANCREATIC DUCT SYSTEM” (priority 2011, published 2013).

How the values were obtained:
[1] = system: acinar cells of the pancreas; conditions: in contrast to exendin-4
[2] = system: acinar cells of the guinea pig pancreas; conditions: by interaction with exendin receptors (Raufman, 1996)

Substance	amylase release [1]	cellular cAMP production [2]
exendin-3: peptide of the exendin group, able to lower blood glucose concentrations	produces an increase	stimulate an increase
exendin-4: peptide of the exendin group, 39 AS, SEQ ID NO: 2, able to lower blood glucose concentrations	–	stimulate an increase
